In the NIST ThermoML archive (doi:10.1021/acs.jced.8b00975):

Conditions: Liquid, Vibrating tube method

CCCCO [butan-1-ol]
mass density [kg/m3]
Conditions	100 kPa	5000 kPa	10000 kPa	15000 kPa	20000 kPa	25000 kPa	30000 kPa	35000 kPa
293.15 K	809.28	813.04	816.54	819.83	822.97	826	828.99	831.99
303.15 K	801.9	806	809.77	813.26	816.52	819.61	822.58	825.48
313.15 K	794.32	798.42	802.22	805.8	809.2	812.49	815.73	818.97

CCCCCO [pentan-1-ol]
mass density [kg/m3]
Conditions	100 kPa	5000 kPa	10000 kPa	15000 kPa	20000 kPa	25000 kPa	30000 kPa	35000 kPa
293.15 K	815.25	818.83	822.19	825.37	828.41	831.36	834.24	837.11
303.15 K	808.05	811.93	815.5	818.82	821.92	824.88	827.74	830.55
313.15 K	800.67	804.61	808.28	811.75	815.06	818.26	821.41	824.56

CCO [ethanol]
mass density [kg/m3]
Conditions	100 kPa	5000 kPa	10000 kPa	15000 kPa	20000 kPa	25000 kPa	30000 kPa	35000 kPa
293.15 K	788.94	793.35	797.51	801.44	805.18	808.74	812.17	815.49
303.15 K	780.83	785.54	789.89	793.92	797.7	801.28	804.72	808.06
313.15 K	772.04	776.85	781.35	785.59	789.62	793.47	797.2	800.84

CO [methanol]
mass density [kg/m3]
Conditions	100 kPa	5000 kPa	10000 kPa	15000 kPa	20000 kPa	25000 kPa	30000 kPa	35000 kPa
293.15 K	791.15	795.92	800.41	804.64	808.67	812.52	816.25	819.89
303.15 K	781.84	786.9	791.61	796.01	800.14	804.05	807.78	811.37
313.15 K	772.35	777.48	782.37	786.99	791.38	795.59	799.69	803.73

C=C(C)C(=O)OCCN(C)C [2-(dimethylamino)ethyl methylpropenoate]
mass density [kg/m3]
Conditions	100 kPa	5000 kPa	10000 kPa	15000 kPa	20000 kPa	25000 kPa	30000 kPa	35000 kPa
293.15 K	933.13	936.87	940.43	943.83	947.11	950.3	953.43	956.52
303.15 K	923.03	926.88	930.61	934.24	937.79	941.28	944.74	948.19
313.15 K	914.01	917.99	921.97	925.87	929.71	933.48	937.2	940.87

CCCO [propan-1-ol]
mass density [kg/m3]
Conditions	100 kPa	5000 kPa	10000 kPa	15000 kPa	20000 kPa	25000 kPa	30000 kPa	35000 kPa
293.15 K	803.17	807.25	811.02	814.54	817.87	821.05	824.15	827.21
303.15 K	795.52	799.83	803.8	807.49	810.95	814.23	817.38	820.48
313.15 K	787.3	791.61	795.67	799.52	803.19	806.72	810.15	813.5
